Data as given in ChEMBL document CHEMBL6134803, “ZLDI-8 facilitates pexophagy by ROS-mediated activation of TFEB and ATM in HeLa cells” (Bioorg Med Chem Lett, 2025).
Activity calls are given as the source filed them. No cut-off for these calls is given here.

Columns and labels:
Assay type in all cases: functional, cell-based
HeLa [1] = assay: Induction of pexophagy in ATG5 knockout human HeLa cells assessed as decrease in ABCD3 protein expression at 5 uM incubated for 48 hrs by Western blot analysis
HeLa [2] = assay: Induction of pexophagy in human HeLa cells expressing HyPer-PTS1 assessed as reduction in peroxisome numbers at 5 uM incubated for 48 hrs in presence of ROS scavenger NAC by immunostaining based analysis
HeLa [3] = assay: Induction of TFEB nuclear translocation in human HeLa cells assessed as decrease in TFEB phoshorylation at 5 uM cotreated with ROS scavenger NAC measured at 48 hrs by Western blot analysis
HeLa [4] = assay: Induction of pexophagy in wild-type human HeLa cells assessed as reduction in peroxisomes at 5 uM incubated for 48 hrs by immunostaining based analysis
HeLa [5] = assay: Induction of pexophagy in human HeLa cells at 5 uM measured at 48 hrs by immunostaining based analysis
HeLa [6] = assay: Induction of pexophagy in wild-type human HeLa cells assessed as decrease in ABCD3 protein expression at 5 uM incubated for 48 hrs by Western blot analysis
HeLa [7] = assay: Induction of pexophagy in wild-type human HeLa cells assessed as decrease in LC3I protein expression at 5 uM incubated for 48 hrs by Western blot analysis
HeLa [8] = assay: Induction of TFEB nuclear translocation in human HeLa cells assessed as decrease in TFEB phoshorylation at 5 uM measured at 48 hrs by Western blot analysis
HeLa [9] = assay: Induction of autophagic flux in human HeLa cells at 5 uM preincubated for 36 hrs followed by addition of Bafilomycin A1 and measured after 12 hrs by Western blot analysis; conditions: time 48.0 hrs
TERT-RPE1 = assay: Induction of pexophagy in human TERT-RPE1 cells expressing mRFP-EGFP-SKL assessed as increase in red-only puncta at 5 uM incubated for 48 hrs by fluorescence microscopic analysis
HeLa [10] = assay: Induction of pexophagy in wild-type human HeLa cells assessed as […] in LC3II protein expression at 5 uM incubated for 48 hrs by Western blot analysis
HeLa [11] = assay: Induction of pexophagy in human HeLa cells expressing HyPer-PTS1 assessed as increase in peroxisomal ROS levels at 5 uM incubated for 48 hrs in presence of ROS scavenger NAC by fluorescence based analysis
HeLa [12] = assay: Induction of TFEB nuclear translocation in human HeLa cells expressing EGFP-TFEB at 5 uM measured at 48 hrs in presence of ROS scavenger NAC by fluorescence microscopic analysis
HeLa [13] = assay: Induction of pexophagy in human HeLa cells assessed as increase in ROS levels at 5 uM incubated for 48 hrs in presence of ROS scavenger NAC by DCFH-DA staining based assay
HeLa [14] = assay: Induction of autophagy in human HeLa cells assessed as reduction in peroxisomes number in mitochondria at 5 uM incubated for 48 hrs in presence of TOMM20 antibody by fluorescence microscopic analysis
HeLa [15] = assay: Induction of pexophagy in ATG5 knockout human HeLa cells assessed as reduction in peroxisomes at 5 uM incubated for 48 hrs by immunostaining based analysis
HeLa [16] = assay: Induction of autophagy in human HeLa cells assessed as reduction in peroxisomes number golgi apparatus at 5 uM incubated for 48 hrs in presence of FTCD antibody by fluorescence microscopic analysis
HeLa [17] = assay: Induction of autophagy in human HeLa cells assessed as reduction in peroxisomes number in endoplasmic reticulum at 5 uM incubated for 48 hrs in presence of P4HB antibody by fluorescence microscopic analysis
HeLa [18] = assay: Induction of pexophagy in human HeLa cells expressing HyPer-PTS1 assessed as reduction in peroxisome numbers at 5 uM incubated for 48 hrs by immunostaining based analysis
HeLa [19] = assay: Induction of pexophagy in human HeLa cells assessed as increase in ATM phosphorylation at serine 1981 residue at 5 uM measured at 48 hrs by Western blot analysis
HeLa [20] = assay: Induction of pexophagy in human HeLa cells assessed as increase in ATM phosphorylation at serine 1981 residue at 5 uM cotreated with ROS scavenger NAC measured at 48 hrs by Western blot analysis
HeLa [21] = assay: Induction of pexophagy in human HeLa cells at 5 uM cotreated with KU55933 measured at 48 hrs by immunostaining based analysis
HeLa [22] = assay: Induction of pexophagy in human HeLa cells assessed as reduction in peroxisomes at 5 uM incubated for 48 hrs treated with Bafilomycin A1 by immunostaining based analysis
HeLa [23] = assay: Induction of pexophagy in ATG5 knockout human HeLa cells assessed as decrease in LC3I protein expression at 5 uM incubated for 48 hrs by Western blot analysis
HeLa [24] = assay: Induction of pexophagy in ATG5 knockout human HeLa cells assessed as […] in LC3II protein expression at 5 uM incubated for 48 hrs by Western blot analysis
HeLa [25] = assay: Induction of pexophagy in human HeLa cells assessed as reduction in peroxisome numbers at 5 uM incubated for 48 hrs in presence of anti-ABCD3 antibody by immunostaining based analysis

Cc1ccc(OCCn2c(C)c(C=C3C(=O)NC(=S)NC3=O)c3ccccc32)c(C)c1 was tested, and the Activity (HeLa [1]) was “inactive”, the Activity (HeLa [2]) was “inactive” and the Activity (HeLa [3]) was “inactive”. The Activity (HeLa [4]) was “Active”, the Activity (HeLa [5]) was “Active” and the Activity (HeLa [6]) was “Active”. The Activity (HeLa [7]) was “Active”, the Activity (HeLa [8]) was “Active” and the Activity (HeLa [9]) was “Active”. For the same compound, the Activity (TERT-RPE1) was “Active”, the Activity (HeLa [10]) was “Active” and the Activity (HeLa [11]) was “Active”. For the same compound, the Activity (HeLa [12]) was “Active”, the Activity (HeLa [13]) was “Active” and the Activity (HeLa [14]) was “Active”. The Activity (HeLa [15]) was “inactive”, the Activity (HeLa [16]) was “Active” and the Activity (HeLa [17]) was “Active”. For the same compound, the Activity (HeLa [18]) was “Active”, the Activity (HeLa [19]) was “Active” and the Activity (HeLa [20]) was “inactive”. The Activity (HeLa [21]) was “Active”, the Activity (HeLa [22]) was “Active” and the Activity (HeLa [23]) was “inactive”. The Activity (HeLa [24]) was “inactive” and the Activity (HeLa [25]) was “Active”.
